Each compound was assayed against T1, Chymase (Homo sapiens, UniProt P23946) (assay: In vitro assay for inhibition of Chymase (rhodamine 110 peptide substrate, fluorescence)). Conditions: 500 pM chymase, 100 nM substrate, 100 μM TCEP, 1% DMSO, 28° C., 1 hour.
T1 sequence (P23946 22-247): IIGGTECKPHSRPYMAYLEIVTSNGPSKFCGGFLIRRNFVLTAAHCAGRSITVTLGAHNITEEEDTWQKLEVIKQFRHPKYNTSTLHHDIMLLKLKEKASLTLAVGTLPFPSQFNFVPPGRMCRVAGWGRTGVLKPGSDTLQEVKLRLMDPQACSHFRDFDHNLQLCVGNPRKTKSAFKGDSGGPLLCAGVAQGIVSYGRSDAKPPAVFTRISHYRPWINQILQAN
Assay type: biochemical
Experimental: IN VITRO ASSAY FOR INHIBITION OF CHYMASE
Chymase assays were performed in a total volume of 15 μL in Corning black opaque 384-well microtiter plates with a non-binding surface (Corning, N.Y.). The assay buffer was comprised of 20 mM Tris HCl pH 8.0, 50 mM NaCl, 0.01% CHAPS. The test compounds were serially diluted 3-fold with neat DMSO in a 96-well polypropylene plate from a 10 mM DMSO stock to give the 10 point dose response curve. 3 μL of the resulting DMSO solution were transferred to a 384-well polypropylene plate in duplicate, and 37 μL of assay buffer was added. Chymase was added to the assay plate in 3 uL of assay buffer followed by 2 uL of the appropriate compound dilution using a PlateMate Plus (Matrix Technologies Corp., Hudson, N.H.). The reaction was initiated by the addition of 10 uL rhodamine 110, bis-(succinoyl-L-alanyl-L-alanyl-L-prolyl-L-phenylalanylamide) (American Peptides, Sunnyvale, Calif.) in assay buffer containing 150 μM tris(2-carboxyethyl)phosphine (TCEP, Pierce Chemical, Rockford, Ill.) using a Multidrop (Thermo Electron Corp., Waltham, Mass.). Final assay concentrations were 500 pM chymase, 100 nM substrate, 100 μM TCEP, and 1% DMSO. The plates were incubated at 28° C. and 80% humidity for 1 hour, at which time the fluorescence was read on a Viewlux 1430 Microplate Imager (Perkin Elmer Life Sciences, Boston, Mass.) with 485 nm excitation, 530 nm emission, and a fluorescein dichroic mirror. The percentage of control values were calculated relative to assay blanks containing complete reaction minus chymase and a 100% control containing assay buffer with 1% DMSO in place of compound. IC50 values were obtained by fitting the data using XLFit4 (IDBS Software).

In order of falling IC50:
1. Cc1cc(C)c2c(Cn3c(=O)n([C@H](CC(=O)O)c4ccccc4)c4ccncc43)nsc2c1 [(R)-3-[3-(4,6-Dimethyl-benzo[d]isothiazol-3-ylmethyl)-2-oxo-2,3-dihydro-imidazo[4,5-c]pyridin-1-yl]-3-phenyl-propionic acid]  11.2 nM
2. Cc1ccc2c(n1)n([C@H](CC(=O)O)c1cccnc1)c(=O)n2Cc1cn(C)c2cccc(C)c12 [(R)-3-[1-(1,4-Dimethyl-1H-indol-3-ylmethyl)-5-methyl-2-oxo-1,2-dihydro-imidazo[4,5-b]pyridin-3-yl]-3-pyridin-3-yl-propionic acid]  10.7 nM
3. Cc1ccc2c(n1)n([C@H](CC(=O)O)c1cccc(Cl)c1)c(=O)n2Cc1cn(C)c2cccc(C)c12 [(R)-3-(3-Chloro-phenyl)-3-[1-(1,4-dimethyl-1H-indol-3-ylmethyl)-5-methyl-2-oxo-1,2-dihydro-imidazo[4,5-b]pyridin-3-yl]-propionic acid]  7.07 nM
4. CCC[C@@H](CC(=O)NS(=O)(=O)c1cn(C)cn1)n1c(=O)n(Cc2cn(C)c3cccc(C)c23)c2cccnc21 [1-Methyl-1H-imidazole-4-sulfonic acid {(S)-3-[1-(1,4-dimethyl-1H-indol-3-ylmethyl)-2-oxo-1,2-dihydro-imidazo[4,5-b]pyridin-3-yl]-hexanoyl}-amide]  6.71 nM
5. Cc1cc(C)c2c(Cn3c(=O)n([C@H](CC(=O)O)c4cccc(Cl)c4)c4nc(C)ccc43)nsc2c1 [(R)-3-(3-Chloro-phenyl)-3-[1-(4,6-dimethyl-1,2-benzisothiazol-3-ylmethyl)-5-methyl-2-oxo-1,2-dihydro-imidazo[4,5-b]pyridin-3-yl]-propionic acid]  6.26 nM
6. Cc1cccc2c1c(Cn1c(=O)n([C@H](CC(=O)O)c3ccccc3)c3nc(C4CC4)ncc31)cn2C [(R)-3-[2-Cyclopropyl-7-(1,4-dimethyl-1H-indol-3-ylmethyl)-8-oxo-7,8-dihydro-purin-9-yl]-3-phenyl-propionic acid]  5 nM
7. Cc1cc(C)c2c(Cn3c(=O)n([C@H](CC(=O)O)c4ccccc4)c4ncccc43)nsc2c1 [(R)-3-[1-(4,6-Dimethyl-benzo[d]isothiazol-3-ylmethyl)-2-oxo-1,2-dihydro-imidazo[4,5-b]pyridin-3-yl]-3-phenyl-propionic acid]  4.23 nM
8. Cc1cc(C)c2c(Cn3c(=O)n([C@H](CC(=O)O)c4ccccc4)c4cc(C)ncc43)nsc2c1 [(R)-3-[3-(4,6-Dimethyl-1,2-benzisothiazol-3-ylmethyl)-6-methyl-2-oxo-2,3-dihydro-imidazo[4,5-c]pyridin-1-yl]-3-phenyl-propionic acid]  4 nM
9. Cc1cccc2c1c(Cn1c(=O)n([C@H](CC(=O)O)c3ccccc3)c3ccncc31)cn2C [(R)-3-[3-(1,4-Dimethyl-1H-indol-3-ylmethyl)-2-oxo-2,3-dihydro-imidazo[4,5-c]pyridin-1-yl]-3-phenyl-propionic acid]  3.91 nM
10. CCCC(Cn1c(=O)n(Cc2cn(C)c3cccc(C)c23)c2cccnc21)C(=O)O (stereo not drawn) [2-[1-(1,4-Dimethyl-1H-indol-3-ylmethyl)-2-oxo-1,2-dihydro-imidazo[4,5-b]pyridin-3-ylmethyl]-pentanoic acid]  3 nM
11. Cc1cc2c(cn1)n(Cc1cn(C)c3cccc(C)c13)c(=O)n2[C@H](CC(=O)O)c1ccccc1 [(R)-3-[3-(1,4-Dimethyl-1H-indol-3-ylmethyl)-6-methyl-2-oxo-2,3-dihydro-imidazo[4,5-c]pyridin-1-yl]-3-phenyl-propionic acid]  2.62 nM
12. Cc1ccc2c(n1)n([C@H](CC(=O)O)c1ccccc1)c(=O)n2Cc1cn(C)c2cccc(C)c12 [(R)-3-[1-(1,4-Dimethyl-1H-indol-3-ylmethyl)-5-methyl-2-oxo-1,2-dihydro-imidazo[4,5-b]pyridin-3-yl]-3-phenyl-propionic acid]  2.52 nM
13. Cc1cccc2c1c(Cn1c(=O)n([C@H](CC(=O)O)c3ccccc3)c3ncccc31)cn2C [(R)-3-[1-(1,4-Dimethyl-1H-indol-3-ylmethyl)-2-oxo-1,2-dihydro-imidazo[4,5-b]pyridin-3-yl]-3-phenyl-propionic acid]  2.21 nM
14. CCCC(CC(=O)O)n1c(=O)n(Cc2cn(C)c3cccc(C)c23)c2ccc(C#N)nc21 (stereo not drawn) [3-[5-Cyano-1-(1,4-dimethyl-1H-indol-3-ylmethyl)-2-oxo-1,2-dihydro-imidazo[4,5-b]pyridin-3-yl]-hexanoic acid]  2.2 nM
15. COc1ccc2c(n1)n([C@H](CC(=O)O)c1ccccc1)c(=O)n2Cc1cn(C)c2cccc(C)c12 [(R)-3-[1-(1,4-Dimethyl-1H-indol-3-ylmethyl)-5-methoxy-2-oxo-1,2-dihydro-imidazo[4,5-b]pyridin-3-yl]-3-phenyl-propionic acid]  2.05 nM
16. CCCC(CC(=O)O)n1c(=O)n(Cc2cn(C)c3cc(C)cc(C)c23)c2ccc(C(N)=O)nc21 (stereo not drawn) [3-[5-Carbamoyl-2-oxo-1-(1,4,6-trimethyl-1H-indol-3-ylmethyl)-1,2-dihydro-imidazo[4,5-b]pyridin-3-yl]-hexanoic acid]  1.93 nM
17. Cc1cc(C)c2c(Cn3c(=O)n(CC4(C(=O)O)CCCCC4)c4nc(C)ccc43)nsc2c1 [1-[1-(4,6-Dimethyl-1,2-benzisothiazol-3-ylmethyl)-5-methyl-2-oxo-1,2-dihydro-imidazo[4,5-b]pyridin-3-ylmethyl]-cyclohexanecarboxylic acid]  1.45 nM
18. CCCC(CC(=O)O)n1c(=O)n(Cc2cn(C)c3cc(C)cc(C)c23)c2ccc(C#N)nc21 (stereo not drawn) [3-[5-Cyano-2-oxo-1-(1,4,6-trimethyl-1H-indol-3-ylmethyl)-1,2-dihydro-imidazo[4,5-b]pyridin-3-yl]-hexanoic acid]  1.06 nM
19. CCC[C@@H](CC(=O)NS(=O)(=O)C(C)(C)C)n1c(=O)n(Cc2cn(C)c3cccc(C)c23)c2cccnc21 [2-Methyl-propane-2-sulfonic acid {(S)-3-[1-(1,4-dimethyl-1H-indol-3-ylmethyl)-2-oxo-1,2-dihydro-imidazo[4,5-b]pyridin-3-yl]-hexanoyl}-amide]  1 nM
20. Cc1cc(C)c2c(Cn3c(=O)n([C@H](CC(=O)O)c4ccc(Cl)cc4)c4nc(C)ccc43)nsc2c1 [(R)-3-(4-Chloro-phenyl)-3-[1-(4,6-dimethyl-1,2-benzisothiazol-3-ylmethyl)-5-methyl-2-oxo-1,2-dihydro-imidazo[4,5-b]pyridin-3-yl]-propionic acid]  0.624 nM
21. Cc1cc(C)c2c(Cn3c(=O)n([C@H](CC(=O)O)c4ccccc4)c4ncccc43)cn(C)c2c1 [(R)-3-[2-Oxo-1-(1,4,6-trimethyl-1H-indol-3-ylmethyl)-1,2-dihydro-imidazo[4,5-b]pyridin-3-yl]-3-phenyl-propionic acid]  0.61 nM
22. COc1ccc([C@@H](CC(=O)O)n2c(=O)n(Cc3cn(C)c4cccc(C)c34)c3ccc(C)nc32)cc1 [(R)-3-[1-(1,4-Dimethyl-1H-indol-3-ylmethyl)-5-methyl-2-oxo-1,2-dihydro-imidazo[4,5-b]pyridin-3-yl]-3-(4-methoxy-phenyl)-propionic acid]  0.455 nM
23. Cc1cc(C)c2c(Cn3c(=O)n([C@H](CC(=O)O)c4ccc(F)cc4)c4nc(C(N)=O)ccc43)cn(C)c2c1 [(R)-3-[5-Carbamoyl-2-oxo-1-(1,4,6-trimethyl-1H-indol-3-ylmethyl)-1,2-dihydro-imidazo[4,5-b]pyridin-3-yl]-3-(4-fluoro-phenyl)-propionic acid]  0.395 nM
24. Cc1ccc2c(n1)n([C@H](CC(=O)O)c1ccc(Cl)cc1)c(=O)n2Cc1cn(C)c2cccc(C)c12 [(R)-3-(4-Chloro-phenyl)-3-[1-(1,4-dimethyl-1H-indol-3-ylmethyl)-5-methyl-2-oxo-1,2-dihydro-imidazo[4,5-b]pyridin-3-yl]-propionic acid]  0.255 nM
25. Cc1cc(C)c2c(Cn3c(=O)n([C@H](CC(=O)O)c4ccc(Cl)cc4)c4nc(C#N)ccc43)cn(C)c2c1 [(R)-3-(4-Chloro-phenyl)-3-[5-cyano-2-oxo-1-(1,4,6-trimethyl-1H-indol-3-ylmethyl)-1,2-dihydro-imidazo[4,5-b]pyridin-3-yl]-propionic acid]  0.2 nM
26. Cc1cc(C)c2c(Cn3c(=O)n([C@H](CC(=O)O)c4ccc(Cl)cc4)c4nc(C)ccc43)cn(C)c2c1 [(R)-3-(4-Chloro-phenyl)-3-[5-methyl-2-oxo-1-(1,4,6-trimethyl-1H-indol-3-ylmethyl)-1,2-dihydro-imidazo[4,5-b]pyridin-3-yl]-propionic acid]  0.2 nM
27. Cc1cccc2c1c(Cn1c(=O)n([C@H](CC(=O)O)c3ccc(Cl)cc3)c3nc(C#N)ccc31)cn2C [(R)-3-(4-Chloro-phenyl)-3-[5-cyano-1-(1,4-dimethyl-1H-indol-3-ylmethyl)-2-oxo-1,2-dihydro-imidazo[4,5-b]pyridin-3-yl]-propionic acid]  0.165 nM

— patent US9062056B2, “Aza-benzimidazolone Chymase inhibitors” (Boehringer Ingelheim International GmbH, priority 2008, dated 2015)
